What is called EC50 is the concentration that produces a half-maximal response. A lower EC50 goes with an effect from little substance. Usually CC50 stands for the concentration at which the toxic effect on the cells reaches its halfway point. Low readings indicate greater toxicity to the cells, high ones lower toxicity to the cells.

Here are results for 13 molecules from ChEMBL document CHEMBL3286147 (J Med Chem, 2014).

Series [1] in a line: Selectivity ratio of EC50 for Bovine viral diarrhea virus to EC50 for Hepatitis C virus genotype 1b. The format is functional.
Series [2] relates to Bovine viral diarrhea virus 1. Put plainly: Antiviral activity against Bovine viral diarrhea virus infected in human HuH7 cells after 72 hrs by luciferase reporter gene assay. The series is classed as functional, organism-based. The note with it: Bovine viral diarrhea virus isolates and strains, Huh-7, 72 h. A general note: Reporter assays use an easily measured gene product as a stand-in for the process of interest.

Series [3] concerns Hepatitis C virus. Put plainly: Antiviral activity against Hepatitis C virus genotype 1b infected in human HuH7 cells after 72 hrs by FRET assay. The note with it: Huh-7, 72 h. The series is classed as functional, cell-based, Hepacivirus hominis.
Series [4] in a line: Cytotoxicity against human HuH7 cells by Alamar blue assay. The format is cell-based, Huh-7. In general terms: Resazurin is reduced to fluorescent resorufin, in cell work by metabolically active cells.
The test system of series [5] is Hepatitis C virus. Description: Selectivity ratio of EC50 for Hepatitis C virus genotype 1b harboring NS5A Y93H mutation to EC50 for Hepatitis C virus genotype 1b. The format is functional, Hepacivirus hominis.
The subject of series [6] is Hepatitis C virus. Description: Selectivity ratio of EC50 for Hepatitis C virus genotype 1b harboring NS5A L31V/Q54L mutation to EC50 for Hepatitis C virus genotype 1b. The format is functional, Hepacivirus hominis.
Series [7] concerns Hepatitis C virus. Description: Antiviral activity against Hepatitis C virus genotype 1a. The format is functional, Hepacivirus hominis. The note with it: subtype 1a.
A further series is described as follows: in vivo. The note with it: rat, liver, 5 mg/kg.
Series [8] concerns Hepatitis C virus. Put plainly: Antiviral activity against Hepatitis C virus genotype 1b infected in human assessed as log10 IU/ml reduction in mean plasma viral load at 100 mg measured at 24 hrs. The format is functional, Hepacivirus hominis.
The subject of series [9] is Hepatitis C virus. Put plainly: Antiviral activity against Hepatitis C virus genotype 1 infected in human assessed as log10 IU/ml reduction in mean plasma viral load at 1 mg measured at 24 hrs. The format is functional, Hepacivirus hominis.
The subject of series [10] is Hepatitis C virus. Description: Antiviral activity against Hepatitis C virus genotype 1 infected in human assessed as log10 IU/ml reduction in mean plasma viral load at 10 mg measured at 24 hrs. The series is classed as functional, Hepacivirus hominis.
Series [11] relates to Hepatitis C virus. Put plainly: microbe, parasite or virus in culture. As to conditions: genotype 2a JFH-1.
Description: Antiviral activity against Hepatitis C virus genotype 2a JFH
In series [12] the test system is Hepatitis C virus. Put plainly: Antiviral activity against Hepatitis C virus genotype 1b. The series is classed as functional, Hepacivirus hominis.

Description for in vivo: Ratio of drug level in liver to plasma in rat at 5 mg/kg

For the molecule `C[C@H](NC(=O)OCc1ccccc1)C(=O)Nc1ccc(C2S/C(=N\c3cccc(F)c3)N(Cc3ccco3)C2=O)cc1` (stereo partly drawn), the Ratio EC50 in [1] is over 50; with Hepatitis C virus [5] it was over 5. Besides, the EC50 is over 50000 nM in [2] and 570 nM in the series with Hepatitis C virus [3]. The molecule also yielded a CC50 in series [4] of over 50000 nM.

Turning to `O=C(Nc1ccc(C2S/C(=N\c3cccc(F)c3)N(Cc3ccco3)C2=O)cc1)[C@H]1CCCN1C(=O)OCc1ccccc1` (stereo partly drawn), the 50% effective concentration (EC50) in the series on Hepatitis C virus [3] came out at 6000 nM.

In the case of `C[C@H](NC(=O)Cc1ccccc1)C(=O)Nc1ccc(C2S/C(=N\c3cccc(F)c3)N(Cc3ccco3)C2=O)cc1` (stereo partly drawn), the “Ratio EC50” value is given as 354 in the series with Hepatitis C virus [6] and over 625 in the series with Hepatitis C virus [5]. Besides, in the series with Hepatitis C virus [3], the EC50 was 5 nM.

Consider `C[C@H](NC(=O)CCc1ccccc1)C(=O)Nc1ccc(C2S/C(=N\c3cccc(F)c3)N(Cc3ccco3)C2=O)cc1` (stereo partly drawn), for which, in the series on Hepatitis C virus [3], the EC50 came out at 1900 nM.

In the series on Hepatitis C virus [3], `O=C(Nc1ccc(C2S/C(=N\c3cccc(F)c3)N(Cc3ccco3)C2=O)cc1)[C@@H]1CCCN1C(=O)CCc1ccccc1` (stereo partly drawn) came in with an EC50 of 5500 nM.

In the series with Hepatitis C virus [3], `C[C@H](NC(=O)OCc1ccccc1)C(=O)Nc1ccc(C2S/C(=N\c3cccc(F)c3)N(Cc3cnccn3)C2=O)cc1` (stereo partly drawn) returned an EC50 of 38 nM.

In turn, `C[C@H](NC(=O)OCc1ccccc1)C(=O)Nc1ccc(C2S/C(=N\c3cccc(F)c3)N(Cc3ccccn3)C2=O)cc1` (stereo partly drawn) returned a concentration for a half-maximal effect (EC50) in the series on Hepatitis C virus [3] of 2 nM.

Regarding `O=C(Nc1ccc(/C=C/c2ccc(NC(=O)[C@@H]3CCCN3C(=O)Cc3ccccc3)cc2)cc1)[C@@H]1CCCN1C(=O)Cc1ccccc1`, in the series with Hepatitis C virus [7], the EC50 was over 10000 nM.

`COC(=O)N[C@H](C(=O)N1CCC[C@H]1c1ncc(-c2ccc(-c3ccc(-c4cnc([C@@H]5CCCN5C(=O)[C@@H](NC(=O)OC)C(C)C)[nH]4)cc3)cc2)[nH]1)C(C)C`: the Kp in “in vivo” stood at 5. Also, the Activity is 3.6 log10IU/ml in the series on Hepatitis C virus [8], 1.8 log10IU/ml with Hepatitis C virus [9] and 3.2 log10IU/ml in the series on Hepatitis C virus [10]. In addition, it took 0.028 nM to reach a half-maximal effect in the series with Hepatitis C virus [11] (EC50).

Consider `O=C1N[C@H]2[C@H](CO[C@H]2CCCCC(=O)N2CCC[C@H]2C(=O)Nc2ccc(/C=C/c3ccc(NC(=O)[C@@H]4CCCN4C(=O)Cc4ccccc4)cc3)cc2)N1`, for which the EC50 in the series with Hepatitis C virus [12] is over 10000 nM.

Take `C[C@H](NC(=O)OCc1ccccc1)C(=O)Nc1ccc(C2S/C(=N\c3ccc(N4CCOCC4)c(F)c3)N(Cc3ccco3)C2=O)cc1` (stereo partly drawn): the midpoint of the response in the series with Hepatitis C virus [3], the EC50, lay at 15 nM.

In the series on Hepatitis C virus [3], `C[C@H](NC(=O)OCc1ccccc1)C(=O)Nc1ccc(C2S/C(=N\c3cccc(F)c3)N(Cc3cc(F)c(F)c(F)c3)C2=O)cc1` (stereo partly drawn) came in with an EC50 of 600 nM.

In the series on Hepatitis C virus [3], `O=C(Nc1ccc(C2S/C(=N\c3cccc(F)c3)N(Cc3ccco3)C2=O)cc1)[C@H]1CCCN1C(=O)Cc1ccccc1` (stereo partly drawn) showed an EC50 of 2 nM.
